Consider 24 compounds from US8853424B2 (Japan Science and Technology Agency, priority 2008, dated 2014).

The structures appear in SMILES notation.

One test concerns transglutaminase (TGase). In words: Measurement of TG (TGase inhibitory activity, monodansyl cadaverine / N,N-dimethylcasein fluorescence, FDSS 3000). The format is biochemical. A digest of the protocol: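 Compound (1 μL of 10 mM stock) added to 0.1 mL reaction: 100 mM HEPES-NaOH pH 7.5, 1 mM CaCl2, 20 μM monodansyl cadaverine, 0.05 mg/mL N,N-dimethylcasein, 5 μg/mL TGase. Rate of fluorescence change at 340 nm measured; DMSO control set to 100; TG50 is the concentration halving activity.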

In test [1] the test system is Truncated N-terminal huntington 150 Q-EGFP-Neuron 2a cells. Briefly: Measurement of x-Fold (polyglutamine aggregation inhibitory activity). The format is cell-based. The method, then:
In the present invention, the polyglutamine aggregation inhibitory activity (x-Fold) can be measured, for example, by the method described in the Example.
The number of the aggregated cells, and the total number of cells were counted by Array Scan V T1 (manufactured by Cellomics, Pittuburg, USA), and the ratio of the aggregated cells to the total number of cells was determined (x-Fold). […]

Setting [2] is: TGase activity with compound (10 mM, 1 μL in 0.1 ml enzyme reaction solution), DMSO control taken as 100.
[3] abbreviates: TGase inhibitory activity value, Table 1.
Setting [4] is: polyglutamine aggregation inhibitory activity, Table 1.
The mark [5] stands for this setting: ratio of aggregated cells to total number of cells, compound 20 μM, 20 hr, almost 1 without compound, smaller = stronger inhibition.
[6] abbreviates: TGase inhibitory activity measurement, unit not given.
The mark [7] stands for this setting: polyglutamine aggregation, Truncated N-terminal huntington 150 Q-EGFP-Neuron 2a cells.

Regarding `OB(c1ccccc1)c1ccc(COCCOc2ccc(B(O)c3ccccc3)cc2)cc1` [Example 379, (4-(phenylhydroxyboryl)phenoxyethyl)(4-(phenylhydroxyboryl)benzyl)ether], the “TGase activity remaining (% of DMSO control = 100)” value with transglutaminase (TGase) (setting [2]) and in the test on transglutaminase (TGase) (setting [3]) was 92 in each case. In addition, the x-Fold in test [1] (setting [4]) and in test [1] (setting [5]) was 0.74 in each case.

Regarding `Cc1ccc(B(OC(=O)C(N)CCN)c2ccc(C)c(Cl)c2)cc1Cl` (stereo not drawn) [Example 293, di(3-chloro-4-methylphenyl)(2,4-diaminobutyrate-O,N)borane], the “TGase activity remaining (% of DMSO control = 100)” value in the test on transglutaminase (TGase) (setting [2]) and with transglutaminase (TGase) (setting [3]) was 116 throughout. Besides, the x-Fold in test [1] (setting [4]) and in test [1] (setting [5]) was 0.91 throughout.

On to `OB(CCCCB(O)c1ccccc1)c1ccccc1` [Example 113, 1,4-bis(hydroxyphenylboryl)butane], for which the “TGase activity remaining (% of DMSO control = 100)” value in the test with transglutaminase (TGase) (setting [2]) and with transglutaminase (TGase) (setting [3]) was 112 in each case. For the same compound, the x-Fold in test [1] (setting [4]) and in test [1] (setting [5]) was 0.99 each time.

With `c1ccc(B(OC(c2ccccc2)c2ccccn2)c2ccccc2COCc2ccccc2B(OC(c2ccccc2)c2ccccn2)c2ccccc2)cc1` (stereo not drawn) [Example 133, (2-pyridyl-phenylmethoxyphenylboryl 2-benzyl)ether], the “TGase activity remaining (% of DMSO control = 100)” value in the test with transglutaminase (TGase) (setting [2]) and in the test with transglutaminase (TGase) (setting [3]) was 106 in each case. Moreover, the x-Fold in test [1] (setting [4]) and in test [1] (setting [5]) was 1.00 each time.

Take `Cc1c(Cl)cccc1B(O)c1cccc(Cl)c1C` [Example 200, di(3-chloro-2-methylphenyl)borinic acid]: the “TGase activity remaining (% of DMSO control = 100)” value with transglutaminase (TGase) (setting [2]) is reported as 100. In addition, the x-Fold in test [1] (setting [5]) is 0.92.

Regarding `NC(CCC(=O)O)C(=O)OB(c1ccccc1)c1ccc(Oc2ccc(B(OC(=O)C(N)CCC(=O)O)c3ccc(CO)cc3)cc2)cc1` (stereo not drawn) [Example 393, (4-(phenyl-glutamic acid boryl)phenyl)(4′-(hydroxymethylphenyl-glutamic acid boryl)phenyl)ether], in the test with transglutaminase (TGase) (setting [2]), the “TGase activity remaining (% of DMSO control = 100)” value is listed as 117. Further, the x-Fold in test [1] (setting [5]) is 0.56.

As for `N#Cc1ccc(B(OCc2ccccn2)c2ccc(C#N)cc2)cc1` [Example 104, 2-pyridylmethyl bis(4-cyanophenyl)borinate], the “TGase activity remaining (% of DMSO control = 100)” value with transglutaminase (TGase) (setting [2]) and in the test on transglutaminase (TGase) (setting [3]) was 94 throughout. The x-Fold in test [1] (setting [4]) and in test [1] (setting [5]) was 1.16 each time.

For the compound `NCCOB(c1cc(F)cc(Cl)c1)c1cc(F)cc(Cl)c1` [Example 99, aminoethyl bis(3-chloro-5-fluorophenyl)borinate], the “TGase activity remaining (% of DMSO control = 100)” value with transglutaminase (TGase) (setting [2]) and in the test on transglutaminase (TGase) (setting [3]) was 109 each time. Further, the x-Fold in test [1] (setting [4]) and in test [1] (setting [5]) was 0.73 each time.

In the case of `COc1ccc(C(OB(c2ccc(C)c(Cl)c2)c2ccc(C)c(Cl)c2)c2ccccn2)cc1` (stereo not drawn) [Example 127, bis(3-chloro-4-methylphenyl) 2-pyridyl-4-methoxyphenylmethoxyborane], the “TGase activity remaining (% of DMSO control = 100)” value with transglutaminase (TGase) (setting [2]) and in the test on transglutaminase (TGase) (setting [3]) was 109 each time. The x-Fold in test [1] (setting [4]) and in test [1] (setting [5]) was 0.70 throughout.

Consider `CN(C)CCOB(c1ccc(COCc2ccc(B(OCCN(C)C)c3ccc(F)c(F)c3)cc2)cc1)c1ccc(F)c(F)c1` [Example 418, bis(4,4′-(3,4-difluorophenyl-N,N-dimethylaminoethoxyboryl)benzyl)ether], for which the “TGase activity remaining (% of DMSO control = 100)” value with transglutaminase (TGase) (setting [2]) and in the test on transglutaminase (TGase) (setting [6]) was 45 each time. Besides, the x-Fold in test [1] (setting [7]) and in test [1] (setting [5]) was 1.02 throughout.

Turning to `NCCOB(c1cc(F)c(F)c(F)c1)c1cc(F)c(F)c(F)c1` [Example 89, aminoethyl bis(3,4,5-trifluorophenyl)borinate], the “TGase activity remaining (% of DMSO control = 100)” value in the test on transglutaminase (TGase) (setting [2]) and with transglutaminase (TGase) (setting [3]) was 80 in each case. For the same compound, the x-Fold in test [1] (setting [4]) and in test [1] (setting [5]) was 0.94 in each case.

Take `NCCC(N)C(=O)OB(c1ccccc1)c1ccc(COCc2ccc(B(OC(=O)C(N)CCN)c3ccccc3)cc2)cc1` (stereo not drawn) [Example 453, bis(4,4′-(phenyl-2,4-diaminobutyrateboryl)benzyl)ether]: the “TGase activity remaining (% of DMSO control = 100)” value with transglutaminase (TGase) (setting [2]) and in the test with transglutaminase (TGase) (setting [6]) was 113 throughout. In addition, the x-Fold in test [1] (setting [7]) and in test [1] (setting [5]) was 1.04 throughout.

`Cc1ccc(B(OC(=O)c2ccccn2)c2ccc(C)c(Cl)c2)cc1Cl` [Example 221, di(3-chloro-4-methylphenyl)(2-pyridine carboxylate-O,N)borane]: in the test with transglutaminase (TGase) (setting [2]), the “TGase activity remaining (% of DMSO control = 100)” value worked out at 73. Further, in test [1] (setting [5]), the x-Fold is given as 0.94.

`NCCOB(c1ccc(COCc2cccc(B(OCCN)c3cc(F)c(F)c(F)c3)c2)cc1)c1cc(F)c(F)c(F)c1` [Example 354, (3-(3′,4′,5′-trifluorophenylaminoethoxyboryl)benzyl)(4-(3′,4′,5′-trifluorophenylaminoethoxyboryl)benzyl)ether]: the “TGase activity remaining (% of DMSO control = 100)” value in the test with transglutaminase (TGase) (setting [2]) and in the test with transglutaminase (TGase) (setting [3]) was 113 each time. In addition, the x-Fold in test [1] (setting [4]) and in test [1] (setting [5]) was 1.09 in each case.

For `N#Cc1cccc(B(O)c2cccc(C#N)c2)c1` [Example 306, 3,3′-di(cyano-phenyl)borinic acid], the “TGase activity remaining (% of DMSO control = 100)” value in the test with transglutaminase (TGase) (setting [2]) and in the test with transglutaminase (TGase) (setting [3]) was 90 in each case. The x-Fold in test [1] (setting [4]) and in test [1] (setting [5]) was 0.98 in each case.

As for `CN(C)CCOB(c1ccccc1)c1ccc(COCc2ccc(B(OCCN(C)C)c3ccccc3)cc2)cc1` [Example 198, bis(4,4′-(phenyldimethylaminoethoxyboryl)benzyl)ether], the “TGase activity remaining (% of DMSO control = 100)” value is given as 28 in the test on transglutaminase (TGase) (setting [2]) and 28 with transglutaminase (TGase) (TGase inhibitory activity value, Table 1, listed as 3003). The x-Fold in test [1] (polyglutamine aggregation inhibitory activity, Table 1, listed as 3003) was 0.8; in test [1] (setting [5]), 0.8.

Take `CNCCOB(c1ccccc1)c1ccc(COCc2ccc(B(OCCNC)c3ccccc3)cc2)cc1` [Example 400, bis(4,4′-(phenyl-N-methylaminoethoxyboryl)benzyl)ether]: the “TGase activity remaining (% of DMSO control = 100)” value in the test on transglutaminase (TGase) (setting [2]) and in the test on transglutaminase (TGase) (setting [6]) was 52 each time. In addition, the x-Fold in test [1] (setting [7]) and in test [1] (setting [5]) was 1.01 in each case.

For the compound `NCC(CN)OB(c1ccc(Cl)c(F)c1)c1ccc(Cl)c(F)c1` [Example 235], the “TGase activity remaining (% of DMSO control = 100)” value with transglutaminase (TGase) (setting [2]) and in the test with transglutaminase (TGase) (setting [3]) was 80 in each case. Further, the x-Fold in test [1] (setting [4]) and in test [1] (setting [5]) was 1.03 throughout.

For `Cc1cc(B(OCCN)c2ccccc2)cc(B(OCCN)c2ccccc2)c1` [Example 357, 3,5-di(phenylaminoethoxyboryl)toluene], the “TGase activity remaining (% of DMSO control = 100)” value with transglutaminase (TGase) (setting [2]) and in the test with transglutaminase (TGase) (setting [3]) was 89 in each case. For the same compound, the x-Fold in test [1] (setting [4]) and in test [1] (setting [5]) was 1.03 throughout.

In the case of `c1ccc(B2OCCN3CCN(CCOB(c4ccccc4)c4cccc(c4)COCc4cccc2c4)CC3)cc1` [Example 173, (3,3′-(phenylpiperazino-O,O-ethoxyboryl)benzyl)ether], the “TGase activity remaining (% of DMSO control = 100)” value with transglutaminase (TGase) (setting [2]) and with transglutaminase (TGase) (setting [3]) was 122 each time. In addition, the x-Fold in test [1] (setting [4]) and in test [1] (setting [5]) was 1.06 each time.

With `NCCOB(c1ccccc1)c1cccc(B(OCCN)c2ccccc2)c1` [Example 120, 1,3-bis(phenyl-2-aminoethoxyboryl)benzene], the “TGase activity remaining (% of DMSO control = 100)” value in the test on transglutaminase (TGase) (setting [2]) and with transglutaminase (TGase) (setting [3]) was 88 throughout. In addition, the x-Fold in test [1] (setting [4]) and in test [1] (setting [5]) was 1.08 throughout.

Regarding `c1cc(B(OCC2CCCN2)c2ccc3sc4ccc(B(OCC5CCCN5)c5ccsc5)cc4c3c2)cs1` (stereo not drawn) [Example 389, 2,8-di(3-thiophenyl-2-pyrrolidinomethoxyboryl)dibenzothiophene], the “TGase activity remaining (% of DMSO control = 100)” value in the test on transglutaminase (TGase) (setting [2]) and in the test with transglutaminase (TGase) (setting [3]) was 81 throughout. The x-Fold in test [1] (setting [4]) and in test [1] (setting [5]) was 0.83 throughout.

As to `CNCCOB(c1ccc(COCc2ccc(B(OCCNC)c3ccc(F)c(F)c3)cc2)cc1)c1ccc(F)c(F)c1` [Example 417, bis(4,4′-(3,4-difluorophenyl-N-methylaminoethoxyboryl)benzyl)ether], the “TGase activity remaining (% of DMSO control = 100)” value with transglutaminase (TGase) (setting [2]) and in the test with transglutaminase (TGase) (setting [6]) was 91 throughout. The x-Fold in test [1] (setting [7]) and in test [1] (setting [5]) was 1.01 throughout.

Turning to `FC(F)(F)c1ccc(C(OB(c2ccccc2)c2ccccc2COCc2ccccc2B(OC(c2ccc(C(F)(F)F)cc2)c2ccccn2)c2ccccc2)c2ccccn2)cc1` (stereo not drawn) [Example 134, (2-pyridyl-4-trifluoromethylphenylmethoxyphenylboryl 2-benzyl)ether], the “TGase activity remaining (% of DMSO control = 100)” value in the test on transglutaminase (TGase) (setting [2]) and in the test on transglutaminase (TGase) (setting [3]) was 94 in each case. The x-Fold in test [1] (setting [4]) and in test [1] (setting [5]) was 0.92 each time.
